{"source": "patent US20250230173A1", "about": "“SALT FORMS OF AN AXL INHIBITOR” (Arcus Biosciences, Inc., priority 2023, published 2025)", "format_in_all_cases": "physicochemical", "key": {"[1]": {"experiment": "Stability study of selected solid forms, HPLC purity after 7 days of storage"}, "[2]": {"experiment": "Stability study of selected solid forms, XRPD after 7 days of storage", "description": "XRPD diffractograms were collected with a Bruker, D2 Phaser or Panalytical Empyrean X-ray diffractometer. Diffractograms can be read by one of skill in the art, for example, to determine if a chemical sample is the substantially the same, different, or represents a mixture of forms. When a diffractogram is “substantially in accordance” as another diffractogram, a person of skill in the art would regard the samples resulting in the two diffractograms as the same form or same mixture of forms, taking into account minor variations for instrumentation, conditions, and the like.\nA stability study comparing amorphous freebase Compound I, Freebase Form II, 2-Napsylate Form I, Fumarate Form I, Succinate Form I, and Camsylate Form I was conducted. HPLC measurements were taken after 7 days of storage at the indicated conditions."}, "[3]": {"experiment": "Competitive slurry of 2-Napsylate Form I and Form VI at different water activities", "experimental": "To determine the impact of water activity on 2-Napsylate Form VI and 2-Napsylate Form I, a series of competitive slurry experiments were carried out at different water activities in THF/water and ACN/water solvent systems at RT and 55° C. Suspensions of 2-Napsylate Form I at each condition were made and allowed to equilibrate for 2 h followed by addition of ˜5 mg of Form VI with stirring."}}}
{"smiles": "Cc1cccnc1-c1ccc(-c2n[nH]c3ncc(-c4ccc5c(c4)CC[C@@H](N4C6COCC4C6)CC5)cc23)nc1", "note": "[Freebase Form II]", "values": [{"measurement": "HPLC Purity (A %)", "setting": "[1]; 7 days, 25° C.", "result": 99.44, "unit": "A %"}, {"measurement": "HPLC Purity (A %)", "setting": "[1]; 7 days, 40° C. / 75% RH", "result": 99.36, "unit": "A %"}, {"measurement": "HPLC Purity (A %)", "setting": "[1]; 7 days, 60° C.", "result": 99.22, "unit": "A %"}, {"measurement": "Chemical and physical stability compared to the other forms tested", "setting": "[1]; Example 6 stability study", "result": "better chemical and physical stability"}, {"measurement": "HPLC Purity (A %)", "setting": "[1]; T0", "result": 100.0, "unit": "A %"}, {"measurement": "XRPD (solid form)", "setting": "[2]; 7 days, 25° C.", "result": "Form II"}, {"measurement": "XRPD (solid form)", "setting": "[2]; 7 days, 40° C. / 75% RH", "result": "Form II"}, {"measurement": "XRPD (solid form)", "setting": "[2]; 7 days, 60° C.", "result": "Form I"}, {"measurement": "XRPD (solid form)", "setting": "[2]; T0", "result": "Form II"}]}
{"smiles": "Cc1cccnc1-c1ccc(-c2n[nH]c3ncc(-c4ccc5c(c4)CC[C@@H](N4C6COCC4C6)CC5)cc23)nc1", "values": [{"measurement": "2-Napsyalte Crystal Form", "setting": "[3]; 55° C., H2O, 1 w", "result": "Gel Formation"}, {"measurement": "2-Napsyalte Crystal Form", "setting": "[3]; 55° C., H2O, 2 d", "result": "Gel Formation"}, {"measurement": "2-Napsyalte Crystal Form", "setting": "[3]; 55° C., THF, 1 w", "result": "Form I (majorly)"}, {"measurement": "2-Napsyalte Crystal Form", "setting": "[3]; 55° C., THF, 2 d", "result": "Form VI (majorly)"}, {"measurement": "2-Napsyalte Crystal Form", "setting": "[3]; 55° C., THF/H2O (aw = 0.2), 1 w", "result": "Form I"}, {"measurement": "2-Napsyalte Crystal Form", "setting": "[3]; 55° C., THF/H2O (aw = 0.2), 2 d", "result": "Form I (majorly)"}, {"measurement": "2-Napsyalte Crystal Form", "setting": "[3]; 55° C., THF/H2O (aw = 0.4), 1 w", "result": "Gel Formation"}, {"measurement": "2-Napsyalte Crystal Form", "setting": "[3]; 55° C., THF/H2O (aw = 0.4), 2 d", "result": "Gel Formation"}, {"measurement": "2-Napsyalte Crystal Form", "setting": "[3]; 55° C., THF/H2O (aw = 0.6), 1 w", "result": "Gel Formation"}, {"measurement": "2-Napsyalte Crystal Form", "setting": "[3]; 55° C., THF/H2O (aw = 0.6), 2 d", "result": "Gel Formation"}, {"measurement": "2-Napsyalte Crystal Form", "setting": "[3]; 55° C., THF/H2O (aw = 0.8), 1 w", "result": "Gel Formation"}, {"measurement": "2-Napsyalte Crystal Form", "setting": "[3]; 55° C., THF/H2O (aw = 0.8), 2 d", "result": "Gel Formation"}, {"measurement": "2-Napsylate Crystal Form", "setting": "[3]; RT, ACN, 1 d", "result": "Form I"}, {"measurement": "2-Napsylate Crystal Form", "setting": "[3]; RT, ACN/H2O (aw = 0.2), 1 d", "result": "Form I"}, {"measurement": "2-Napsylate Crystal Form", "setting": "[3]; RT, ACN/H2O (aw = 0.4), 1 d", "result": "Form I"}, {"measurement": "2-Napsylate Crystal Form", "setting": "[3]; RT, ACN/H2O (aw = 0.6), 1 d", "result": "Form I"}, {"measurement": "2-Napsylate Crystal Form", "setting": "[3]; RT, ACN/H2O (aw = 0.8), 1 d", "result": "Gel Formation"}, {"measurement": "2-Napsyalte Crystal Form", "setting": "[3]; RT, H2O, 1 w", "result": "Form IX"}, {"measurement": "2-Napsylate Crystal Form", "setting": "[3]; RT, H2O, 1 d (ACN series)", "result": "Form I"}, {"measurement": "2-Napsyalte Crystal Form", "setting": "[3]; RT, H2O, 2 d", "result": "Form I"}, {"measurement": "2-Napsyalte Crystal Form", "setting": "[3]; RT, THF, 1 w", "result": "Form I (majorly)"}, {"measurement": "2-Napsyalte Crystal Form", "setting": "[3]; RT, THF, 2 d", "result": "Form VI (majorly)"}, {"measurement": "2-Napsyalte Crystal Form", "setting": "[3]; RT, THF/H2O (aw = 0.2), 1 w", "result": "Form I (majorly)"}, {"measurement": "2-Napsyalte Crystal Form", "setting": "[3]; RT, THF/H2O (aw = 0.2), 2 d", "result": "Form I (majorly)"}, {"measurement": "2-Napsyalte Crystal Form", "setting": "[3]; RT, THF/H2O (aw = 0.4), 1 w", "result": "Gel Formation"}, {"measurement": "2-Napsyalte Crystal Form", "setting": "[3]; RT, THF/H2O (aw = 0.4), 2 d", "result": "Gel Formation"}, {"measurement": "2-Napsyalte Crystal Form", "setting": "[3]; RT, THF/H2O (aw = 0.6), 1 w", "result": "Gel Formation"}, {"measurement": "2-Napsyalte Crystal Form", "setting": "[3]; RT, THF/H2O (aw = 0.6), 2 d", "result": "Gel Formation"}, {"measurement": "2-Napsyalte Crystal Form", "setting": "[3]; RT, THF/H2O (aw = 0.8), 1 w", "result": "Gel Formation"}, {"measurement": "2-Napsyalte Crystal Form", "setting": "[3]; RT, THF/H2O (aw = 0.8), 2 d", "result": "Gel Formation"}]}
{"smiles": "Cc1cccnc1-c1ccc(-c2n[nH]c3ncc(-c4ccc5c(c4)CC[C@@H](N4C6COCC4C6)CC5)cc23)nc1", "note": "[Camsylate Form I]", "values": [{"measurement": "HPLC Purity (A %)", "setting": "[1]; 7 days, 2° C.", "result": 99.69, "unit": "A %"}, {"measurement": "HPLC Purity (A %)", "setting": "[1]; 7 days, 25° C.", "result": 99.68, "unit": "A %"}, {"measurement": "HPLC Purity (A %)", "setting": "[1]; 7 days, 40° C. / 75% RH", "result": 99.29, "unit": "A %"}, {"measurement": "HPLC Purity (A %)", "setting": "[1]; T0", "result": 99.69, "unit": "A %"}, {"measurement": "XRPD (solid form)", "setting": "[2]; 7 days, 2° C.", "result": "Form I"}, {"measurement": "XRPD (solid form)", "setting": "[2]; 7 days, 25° C.", "result": "Form I"}, {"measurement": "XRPD (solid form)", "setting": "[2]; 7 days, 40° C. / 75% RH", "result": "Decreased"}, {"measurement": "XRPD (solid form)", "setting": "[2]; T0", "result": "Form I"}]}
{"smiles": "Cc1cccnc1-c1ccc(-c2n[nH]c3ncc(-c4ccc5c(c4)CC[C@@H](N4C6COCC4C6)CC5)cc23)nc1", "note": "[Succinate Form I]", "values": [{"measurement": "HPLC Purity (A %)", "setting": "[1]; 7 days, 2° C.", "result": 97.74, "unit": "A %"}, {"measurement": "HPLC Purity (A %)", "setting": "[1]; 7 days, 25° C.", "result": 98.22, "unit": "A %"}, {"measurement": "HPLC Purity (A %)", "setting": "[1]; 7 days, 40° C. / 75% RH", "result": 89.76, "unit": "A %"}, {"measurement": "HPLC Purity (A %)", "setting": "[1]; T0", "result": 98.09, "unit": "A %"}, {"measurement": "XRPD (solid form)", "setting": "[2]; 7 days, 2° C.", "result": "Form I"}, {"measurement": "XRPD (solid form)", "setting": "[2]; 7 days, 25° C.", "result": "Form I"}, {"measurement": "XRPD (solid form)", "setting": "[2]; 7 days, 40° C. / 75% RH", "result": "Form I"}, {"measurement": "XRPD (solid form)", "setting": "[2]; T0", "result": "Form I"}]}
{"smiles": "Cc1cccnc1-c1ccc(-c2n[nH]c3ncc(-c4ccc5c(c4)CC[C@@H](N4C6COCC4C6)CC5)cc23)nc1", "note": "[Fumarate Form I]", "values": [{"measurement": "HPLC Purity (A %)", "setting": "[1]; 7 days, 2° C.", "result": 98.01, "unit": "A %"}, {"measurement": "HPLC Purity (A %)", "setting": "[1]; 7 days, 25° C.", "result": 97.94, "unit": "A %"}, {"measurement": "HPLC Purity (A %)", "setting": "[1]; 7 days, 40° C. / 75% RH", "result": 95.29, "unit": "A %"}, {"measurement": "HPLC Purity (A %)", "setting": "[1]; T0", "result": 97.84, "unit": "A %"}, {"measurement": "XRPD (solid form)", "setting": "[2]; 7 days, 2° C.", "result": "Form I"}, {"measurement": "XRPD (solid form)", "setting": "[2]; 7 days, 25° C.", "result": "Form I"}, {"measurement": "XRPD (solid form)", "setting": "[2]; 7 days, 40° C. / 75% RH", "result": "Form I"}, {"measurement": "XRPD (solid form)", "setting": "[2]; T0", "result": "Form I"}]}
